Data: patent US7118895B2, “Process for producing aglycon by using diglycosidase and flavor-improved food containing the aglycon and converting agent to be used in the process” (Amano Enzyme Inc., priority 2000, dated 2006)

Test system: Crude diglycosidase
Assay: Examination of temperature in the conversion into isoflavone aglycons by diglycosidase using soybean materials
Format: biochemical, Penicillium multicolor IAM7153
Design: Decomposition efficiency of glycitin family in roasted soy flour / Decomposition efficiency of daidzin family in roasted soy flour / Decomposition efficiency of genistin family in soymilk / Decomposition efficiency of daidzin family in soymilk / Decomposition efficiency of glycitin family in defatted soybean / Decomposition efficiency of daidzin family in defatted soybean: concentration or dose not given beside the values
Experimental: Into 400 μL of 20 mM acetate buffer of pH 4.0 was suspended 50 mg of each of various soybean materials (roasted soy flour (manufactured by Fuji Shokuryo K.K.), soymilk (manufactured by Gitoh Shokuhin K.K.), defatted soybean (manufactured by Fuji Seiyu K.K.), concentrated soybean protein (manufactured by Fuji Seiyu K.K.)), whereby a substrate solution was prepared. Crude diglycosidase was diluted with 20 mM acetate buffer of pH 4.0 to be the glycosidase activity of 1.88 AU/mL. Fifty μL of the enzyme solution was mixed with the substrate solution and the whole was reacted at 80, 65, 55, 45, 37, or 30° C. at the total volume of 500 μL. To the reaction mixture was added 700 μL of ethanol after 0, 1, 3, and 6 hours of the reaction. After stirring and ultrasonication, the mixture was subjected to centrifugal separation at 15,000 rpm and 4° C. for 10 minutes. The supernatant was filtered through a filter and the existence of isoflavone glycosides and aglycon isoflavones contained in the reaction mixture was detected by HLPC.

[1] = 30 °C, heat treatment of enzyme: no, 0 h
[2] = 30 °C, heat treatment of enzyme: no, 1 h
[3] = 30 °C, heat treatment of enzyme: no, 3 h
[4] = 30 °C, heat treatment of enzyme: no, 6 h
[5] = 30 °C, heat treatment of enzyme: yes, 6 h
[6] = 45 °C, heat treatment of enzyme: no, 0 h
[7] = 45 °C, heat treatment of enzyme: no, 1 h
[8] = 45 °C, heat treatment of enzyme: no, 3 h
[9] = 45 °C, heat treatment of enzyme: no, 6 h
[10] = 45 °C, heat treatment of enzyme: yes, 6 h
[11] = 55 °C, heat treatment of enzyme: no, 0 h
[12] = 55 °C, heat treatment of enzyme: no, 1 h
[13] = 55 °C, heat treatment of enzyme: no, 3 h
[14] = 55 °C, heat treatment of enzyme: no, 6 h
[15] = 55 °C, heat treatment of enzyme: yes, 6 h
[16] = 65 °C, heat treatment of enzyme: no, 0 h
[17] = 65 °C, heat treatment of enzyme: no, 1 h
[18] = 65 °C, heat treatment of enzyme: no, 3 h
[19] = 65 °C, heat treatment of enzyme: no, 6 h
[20] = 65 °C, heat treatment of enzyme: yes, 6 h
[21] = 80 °C, heat treatment of enzyme: no, 0 h
[22] = 80 °C, heat treatment of enzyme: no, 1 h
[23] = 80 °C, heat treatment of enzyme: no, 3 h
[24] = 80 °C, heat treatment of enzyme: no, 6 h
[25] = 80 °C, heat treatment of enzyme: yes, 6 h

In the case of `COc1cc2c(=O)c(-c3ccc(O)cc3)coc2cc1O[C@@H]1O[C@H](COC(C)=O)[C@@H](O)[C@H](O)[C@H]1O` [acetylglycitin, 6″-O-acetylglycitin], the “Decomposition efficiency of glycitin family in defatted soybean” value (30° C., heat treatment of enzyme no, reaction time 0 h) is reported as “not detected”, the “Decomposition efficiency of glycitin family in defatted soybean” value (30° C., heat treatment of enzyme no, reaction time 1 h) is reported as “not detected” and the “Decomposition efficiency of glycitin family in defatted soybean” value (30° C., heat treatment of enzyme no, reaction time 3 h) is reported as “not detected”. For the same molecule, the “Decomposition efficiency of glycitin family in defatted soybean” value (30° C., heat treatment of enzyme no, reaction time 6 h) was “not detected”, the “Decomposition efficiency of glycitin family in defatted soybean” value (30° C., heat treatment of enzyme yes, reaction time 6 h) was “not detected” and the “Decomposition efficiency of glycitin family in concentrated soybean protein” value [1] was 36.0%. The “Decomposition efficiency of glycitin family in roasted soy flour” value [1] was 38.7%, the “Decomposition efficiency of glycitin family in soymilk” value (“Decomposition efficiency … in soymilk” for short) [1] was “not detected” and the “Decomposition efficiency of glycitin family in concentrated soybean protein” value [2] was 35.0%. The “Decomposition efficiency of glycitin family in roasted soy flour” value [2] was 33.8%, the “Decomposition efficiency … in soymilk” value [2] was “not detected” and the “Decomposition efficiency of glycitin family in concentrated soybean protein” value [3] was 33.4%. For the same molecule, the “Decomposition efficiency of glycitin family in roasted soy flour” value [3] was 33.2%, the “Decomposition efficiency … in soymilk” value [3] was “not detected” and the “Decomposition efficiency of glycitin family in concentrated soybean protein” value [4] was 30.8%. For the same molecule, the “Decomposition efficiency of glycitin family in roasted soy flour” value [4] was 19.1%, the “Decomposition efficiency … in soymilk” value [4] was “not detected” and the “Decomposition efficiency of glycitin family in concentrated soybean protein” value [5] was 35.4%. For the same molecule, the “Decomposition efficiency of glycitin family in roasted soy flour” value [5] was 37.5%, the “Decomposition efficiency … in soymilk” value [5] was “not detected” and the “Decomposition efficiency of glycitin family in defatted soybean” value (45° C., heat treatment of enzyme no, reaction time 0 h) was “not detected”. The “Decomposition efficiency of glycitin family in defatted soybean” value (45° C., heat treatment of enzyme no, reaction time 1 h) was “not detected”, the “Decomposition efficiency of glycitin family in defatted soybean” value (45° C., heat treatment of enzyme no, reaction time 3 h) was “not detected” and the “Decomposition efficiency of glycitin family in defatted soybean” value (45° C., heat treatment of enzyme no, reaction time 6 h) was “not detected”. The “Decomposition efficiency of glycitin family in defatted soybean” value (45° C., heat treatment of enzyme yes, reaction time 6 h) was “not detected”, the “Decomposition efficiency of glycitin family in concentrated soybean protein” value [6] was 35.9% and the “Decomposition efficiency of glycitin family in roasted soy flour” value [6] was 38.3%. For the same molecule, the “Decomposition efficiency … in soymilk” value [6] was “not detected”, the “Decomposition efficiency of glycitin family in concentrated soybean protein” value [7] was 34.1% and the “Decomposition efficiency of glycitin family in roasted soy flour” value [7] was 27.4%. For the same molecule, the “Decomposition efficiency … in soymilk” value [7] was “not detected”, the “Decomposition efficiency of glycitin family in concentrated soybean protein” value [8] was 31.0% and the “Decomposition efficiency of glycitin family in roasted soy flour” value [8] was 20.3%. For the same molecule, the “Decomposition efficiency … in soymilk” value [8] was “not detected”, the “Decomposition efficiency of glycitin family in concentrated soybean protein” value [9] was 27.1% and the “Decomposition efficiency of glycitin family in roasted soy flour” value [9] was 9.1%. For the same molecule, the “Decomposition efficiency … in soymilk” value [9] was “not detected”, the “Decomposition efficiency of glycitin family in concentrated soybean protein” value [10] was 35.0% and the “Decomposition efficiency of glycitin family in roasted soy flour” value [10] was 36.8%. For the same molecule, the “Decomposition efficiency … in soymilk” value [10] was “not detected”, the “Decomposition efficiency of glycitin family in defatted soybean” value (55° C., heat treatment of enzyme no, reaction time 0 h) was “not detected” and the “Decomposition efficiency of glycitin family in defatted soybean” value (55° C., heat treatment of enzyme no, reaction time 1 h) was “not detected”. For the same molecule, the “Decomposition efficiency of glycitin family in defatted soybean” value (55° C., heat treatment of enzyme no, reaction time 3 h) was “not detected”, the “Decomposition efficiency of glycitin family in defatted soybean” value (55° C., heat treatment of enzyme no, reaction time 6 h) was “not detected” and the “Decomposition efficiency of glycitin family in defatted soybean” value (55° C., heat treatment of enzyme yes, reaction time 6 h) was “not detected”. For the same molecule, the “Decomposition efficiency of glycitin family in concentrated soybean protein” value [11] was 36.0%, the “Decomposition efficiency of glycitin family in roasted soy flour” value [11] was 39.1% and the “Decomposition efficiency … in soymilk” value [11] was “not detected”. The “Decomposition efficiency of glycitin family in concentrated soybean protein” value [12] was 33.9%, the “Decomposition efficiency of glycitin family in roasted soy flour” value [12] was 30.1% and the “Decomposition efficiency … in soymilk” value [12] was “not detected”. For the same molecule, the “Decomposition efficiency of glycitin family in concentrated soybean protein” value [13] was 29.8%, the “Decomposition efficiency of glycitin family in roasted soy flour” value [13] was 12.1% and the “Decomposition efficiency … in soymilk” value [13] was “not detected”. For the same molecule, the “Decomposition efficiency of glycitin family in concentrated soybean protein” value [14] was 26.8%, the “Decomposition efficiency of glycitin family in roasted soy flour” value [14] was 6.0% and the “Decomposition efficiency … in soymilk” value [14] was “not detected”. The “Decomposition efficiency of glycitin family in concentrated soybean protein” value [15] was 35.3%, the “Decomposition efficiency of glycitin family in roasted soy flour” value [15] was 37.3% and the “Decomposition efficiency … in soymilk” value [15] was “not detected”. The “Decomposition efficiency of glycitin family in defatted soybean” value (65° C., heat treatment of enzyme no, reaction time 0 h) was “not detected”, the “Decomposition efficiency of glycitin family in defatted soybean” value (65° C., heat treatment of enzyme no, reaction time 1 h) was “not detected” and the “Decomposition efficiency of glycitin family in defatted soybean” value (65° C., heat treatment of enzyme no, reaction time 3 h) was “not detected”. The “Decomposition efficiency of glycitin family in defatted soybean” value (65° C., heat treatment of enzyme no, reaction time 6 h) was “not detected”, the “Decomposition efficiency of glycitin family in defatted soybean” value (65° C., heat treatment of enzyme yes, reaction time 6 h) was “not detected” and the “Decomposition efficiency of glycitin family in concentrated soybean protein” value [16] was 36.0%. The “Decomposition efficiency of glycitin family in roasted soy flour” value [16] was 38.7%, the “Decomposition efficiency … in soymilk” value [16] was “not detected” and the “Decomposition efficiency of glycitin family in concentrated soybean protein” value [17] was 35.7%. For the same molecule, the “Decomposition efficiency of glycitin family in roasted soy flour” value [17] was 34.5%, the “Decomposition efficiency … in soymilk” value [17] was “not detected” and the “Decomposition efficiency of glycitin family in concentrated soybean protein” value [18] was 35.5%. The “Decomposition efficiency of glycitin family in roasted soy flour” value [18] was 31.0%, the “Decomposition efficiency … in soymilk” value [18] was “not detected” and the “Decomposition efficiency of glycitin family in concentrated soybean protein” value [19] was 35.8%. For the same molecule, the “Decomposition efficiency of glycitin family in roasted soy flour” value [19] was 29.0%, the “Decomposition efficiency … in soymilk” value [19] was “not detected” and the “Decomposition efficiency of glycitin family in concentrated soybean protein” value [20] was 35.7%. For the same molecule, the “Decomposition efficiency of glycitin family in roasted soy flour” value [20] was 39.3%, the “Decomposition efficiency … in soymilk” value [20] was “not detected” and the “Decomposition efficiency of glycitin family in defatted soybean” value (80° C., heat treatment of enzyme no, reaction time 0 h) was “not detected”. The “Decomposition efficiency of glycitin family in defatted soybean” value (80° C., heat treatment of enzyme no, reaction time 1 h) was “not detected”, the “Decomposition efficiency of glycitin family in defatted soybean” value (80° C., heat treatment of enzyme no, reaction time 3 h) was “not detected” and the “Decomposition efficiency of glycitin family in defatted soybean” value (80° C., heat treatment of enzyme no, reaction time 6 h) was “not detected”. The “Decomposition efficiency of glycitin family in defatted soybean” value (80° C., heat treatment of enzyme yes, reaction time 6 h) was “not detected”, the “Decomposition efficiency of glycitin family in concentrated soybean protein” value [21] was 35.9% and the “Decomposition efficiency of glycitin family in roasted soy flour” value [21] was 38.3%. For the same molecule, the “Decomposition efficiency … in soymilk” value [21] was “not detected”, the “Decomposition efficiency of glycitin family in concentrated soybean protein” value [22] was 36.0% and the “Decomposition efficiency of glycitin family in roasted soy flour” value [22] was 40.1%. For the same molecule, the “Decomposition efficiency … in soymilk” value [22] was “not detected”, the “Decomposition efficiency of glycitin family in concentrated soybean protein” value [23] was 35.7% and the “Decomposition efficiency of glycitin family in roasted soy flour” value [23] was 38.4%. For the same molecule, the “Decomposition efficiency … in soymilk” value [23] was “not detected”, the “Decomposition efficiency of glycitin family in concentrated soybean protein” value [24] was 35.2% and the “Decomposition efficiency of glycitin family in roasted soy flour” value [24] was 35.7%. For the same molecule, the “Decomposition efficiency … in soymilk” value [24] was “not detected”, the “Decomposition efficiency of glycitin family in concentrated soybean protein” value [25] was 34.8% and the “Decomposition efficiency of glycitin family in roasted soy flour” value [25] was 39.4%. The “Decomposition efficiency … in soymilk” value [25] was “not detected”.
